Assays:
ALDH2 [1] = molecular target: T1, ALDH2 (Homo sapiens, UniProt P05091); assay: QuantiChrom ALDH inhibitor screening kit, diaphorase/MTT-coupled colorimetric assay ([…] nm), recombinant enzyme; type: biochemical
T1 sequence (P05091 18-517): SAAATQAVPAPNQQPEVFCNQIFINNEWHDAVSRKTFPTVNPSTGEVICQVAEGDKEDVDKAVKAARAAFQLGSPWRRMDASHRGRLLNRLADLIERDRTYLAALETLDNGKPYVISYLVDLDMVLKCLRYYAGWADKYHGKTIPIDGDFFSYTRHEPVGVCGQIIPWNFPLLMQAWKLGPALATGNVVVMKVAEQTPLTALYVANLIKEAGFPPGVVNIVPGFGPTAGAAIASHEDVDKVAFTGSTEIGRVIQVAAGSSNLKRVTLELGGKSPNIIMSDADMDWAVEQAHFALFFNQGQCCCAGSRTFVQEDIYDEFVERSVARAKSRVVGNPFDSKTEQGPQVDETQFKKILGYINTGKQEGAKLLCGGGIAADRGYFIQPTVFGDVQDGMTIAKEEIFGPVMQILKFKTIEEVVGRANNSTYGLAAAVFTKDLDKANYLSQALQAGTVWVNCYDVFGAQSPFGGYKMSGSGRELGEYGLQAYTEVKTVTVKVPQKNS

ALDH2 [2] = molecular target: T1, ALDH2; assay: QuantiChrom ALDH inhibitor screening kit, % inhibition at […], recombinant enzyme; type: biochemical

| inhibition at 20 µM (ALDH2 [2]) | SMILES | IC50 (ALDH2 [1]) |
| --- | --- | --- |
|  | O=c1c(O)c(-c2ccc(O)c(O)c2)oc2cc(O)cc(O)c12 [compound 2, quercetin] | 26.5 µM |
| 25.8 ± 1.31% | COc1ccc(-c2oc3cc(O)cc(O)c3c(=O)c2O)cc1O [compound 8, tamarixetin] |  |
|  | O=C(O)[C@H]1O[C@@H](Oc2c(-c3ccc(O)c(O)c3)oc3cc(O)cc(O)c3c2=O)[C@H](O)[C@@H](O)[C@@H]1O [compound 9, quercetin-3-glucuronide] | 9.62 µM |

Reference: paper PMC10662156 (Scientific Reports, 2023)
